# Laboratory results as given in paper PMC2980575 (Analytical biochemistry, 2010).
# What was measured:
# HDAC8 [1] = biological target: T1, HDAC8 (Homo sapiens, UniProt Q9BY41); test: Trypsin-coupled steady-state kinetic assay with Fluor de Lys substrate; assay type: biochemical
# T1 sequence (Q9BY41 1-377): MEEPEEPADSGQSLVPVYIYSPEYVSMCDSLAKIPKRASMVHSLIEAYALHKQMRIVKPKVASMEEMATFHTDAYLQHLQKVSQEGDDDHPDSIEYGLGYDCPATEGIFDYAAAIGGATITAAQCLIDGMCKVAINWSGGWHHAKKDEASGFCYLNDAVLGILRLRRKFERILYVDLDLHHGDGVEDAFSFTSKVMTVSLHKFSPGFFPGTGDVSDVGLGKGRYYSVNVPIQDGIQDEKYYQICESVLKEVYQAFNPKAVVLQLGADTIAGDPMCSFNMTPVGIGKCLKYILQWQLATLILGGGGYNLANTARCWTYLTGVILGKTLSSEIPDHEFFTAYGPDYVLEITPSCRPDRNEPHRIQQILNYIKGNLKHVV
# HDAC8 [2] = biological target: T1, HDAC8; test: Stopped-flow transient kinetics, c-SAHA as competitive ligand; assay type: binding; conditions: pH 7.5, read-out: koff (dissociation off-rate)
# HDAC8 [3] = biological target: T1, HDAC8; test: Fluorescence displacement method with c-SAHA as probe, Dynafit analysis
# HDAC8 [4] = biological target: T1, HDAC8; test: Direct fluorescence titration of c-SAHA with HDAC8; assay type: binding
"Ki of c-SAHA lower than that of parent compound SAHA (HDAC8 [1]; steady-state kinetic data, c-SAHA versus SAHA)",Kd (HDAC8 [4]) [nM],Compound,Ki (HDAC8 [1]) [nM],koff (HDAC8 [2]) [s⁻¹],Kd (HDAC8 [3]) [nM]
–,–,"CN(C)c1ccc(C(=O)NCCCCCCC(=O)NO)cc1 [M344, 4-Dimethylamino-N-(6-hydroxycarbamoylhexyl)-benzamide]",180 ± 20,1.05 ± 0.12,320 ± 90
about 5 fold,160 ± 20,"Cc1cc(=O)oc2cc(NC(=O)CCCCCCC(=O)NO)ccc12 [c-SAHA, N^1-hydroxy-N^8-(4-methyl-2-oxo-2H-chromen-7-yl)octanediamide]",160,–,–
